Results on 3 molecules are retold here after the kinase profiling compilation of Christmann-Franck et al. (2016).

Sequence of TYK2 JH1 catalytic (human) (P29597 whole entry, looked up): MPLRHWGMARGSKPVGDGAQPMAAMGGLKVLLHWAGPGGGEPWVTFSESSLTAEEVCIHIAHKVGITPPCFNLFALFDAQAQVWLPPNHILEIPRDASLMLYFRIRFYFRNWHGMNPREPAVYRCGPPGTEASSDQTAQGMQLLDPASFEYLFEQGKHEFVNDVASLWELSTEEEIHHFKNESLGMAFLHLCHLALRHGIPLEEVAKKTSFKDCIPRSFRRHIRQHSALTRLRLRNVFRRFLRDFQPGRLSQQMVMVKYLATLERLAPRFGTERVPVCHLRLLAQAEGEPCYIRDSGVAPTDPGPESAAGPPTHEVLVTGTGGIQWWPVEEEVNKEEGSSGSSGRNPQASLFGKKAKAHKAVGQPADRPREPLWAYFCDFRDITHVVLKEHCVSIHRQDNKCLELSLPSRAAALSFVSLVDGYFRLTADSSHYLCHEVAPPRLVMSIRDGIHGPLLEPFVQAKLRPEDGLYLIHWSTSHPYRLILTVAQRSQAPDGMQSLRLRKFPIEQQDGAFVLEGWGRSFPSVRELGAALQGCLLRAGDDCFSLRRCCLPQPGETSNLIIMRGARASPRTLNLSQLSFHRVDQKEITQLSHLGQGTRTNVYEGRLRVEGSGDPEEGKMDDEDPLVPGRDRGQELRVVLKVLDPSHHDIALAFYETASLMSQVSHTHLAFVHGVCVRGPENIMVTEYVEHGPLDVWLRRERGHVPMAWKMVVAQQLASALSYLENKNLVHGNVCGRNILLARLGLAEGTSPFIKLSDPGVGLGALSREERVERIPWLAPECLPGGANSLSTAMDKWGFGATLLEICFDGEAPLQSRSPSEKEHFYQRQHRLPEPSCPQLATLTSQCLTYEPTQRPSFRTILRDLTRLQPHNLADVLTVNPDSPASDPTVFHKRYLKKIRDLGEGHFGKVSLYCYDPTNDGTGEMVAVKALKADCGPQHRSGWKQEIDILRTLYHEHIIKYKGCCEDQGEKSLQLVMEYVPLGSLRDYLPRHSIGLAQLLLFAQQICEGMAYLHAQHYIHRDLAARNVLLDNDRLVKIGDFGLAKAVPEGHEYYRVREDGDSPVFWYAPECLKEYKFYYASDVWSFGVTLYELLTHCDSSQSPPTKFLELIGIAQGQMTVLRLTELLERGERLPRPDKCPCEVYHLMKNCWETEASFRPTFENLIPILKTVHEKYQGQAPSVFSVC
Sequence of AURKB (human) (Q96GD4 whole entry, looked up): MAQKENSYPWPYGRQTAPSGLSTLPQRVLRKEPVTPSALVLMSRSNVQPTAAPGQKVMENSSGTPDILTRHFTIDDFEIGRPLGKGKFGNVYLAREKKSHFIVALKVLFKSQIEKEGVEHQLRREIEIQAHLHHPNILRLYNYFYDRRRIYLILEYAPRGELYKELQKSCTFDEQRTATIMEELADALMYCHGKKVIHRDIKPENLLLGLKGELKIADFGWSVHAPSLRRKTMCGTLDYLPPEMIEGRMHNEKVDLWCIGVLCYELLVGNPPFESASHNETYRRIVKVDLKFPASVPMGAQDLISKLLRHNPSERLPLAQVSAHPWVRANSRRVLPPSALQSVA

In the first assay the target is LCK (human) (UniProt P06239). As to the kind of experiment: radiometric filter-binding kinase assay, Kinase HotSpot. The note with it: compound 0.5 µM; ATP 10 µM.
Regarding `CC[n+]1c(/C=C/N(C)c2ccccc2)n(-c2ccccc2)c2ccc(-c3nc4ccccc4s3)cc21`, the residual activity (commonly the signal under treatment as a percentage of the control signal) was determined as 89.9%.

As for `N#C/C(=C(/N)Sc1ccc(N)cc1)c1ccccc1C(F)(F)F`, the residual activity was 107%.

Take `c1ccc(-c2n[nH]cc2-c2ccnc3ccccc23)nc1`: the residual activity was found to be 91.7%.

Another assay has as its target MYLK (human) (UniProt Q15746). The description is as above. The note with it: compound 0.5 µM; ATP 10 µM.
Turning to `CC[n+]1c(/C=C/N(C)c2ccccc2)n(-c2ccccc2)c2ccc(-c3nc4ccccc4s3)cc21`, the residual activity came out at 98.4%.

Consider `N#C/C(=C(/N)Sc1ccc(N)cc1)c1ccccc1C(F)(F)F`, for which the residual activity turned out to be 94.9%.

Turning to `c1ccc(-c2n[nH]cc2-c2ccnc3ccccc23)nc1`, the residual activity was found to be 105%.

Another assay deals with ERBB4 (human) (UniProt Q15303). Described as above. The note with it: compound 0.5 µM; ATP 10 µM.
In the case of `CC[n+]1c(/C=C/N(C)c2ccccc2)n(-c2ccccc2)c2ccc(-c3nc4ccccc4s3)cc21`, the residual activity was determined as 102%.

As to `N#C/C(=C(/N)Sc1ccc(N)cc1)c1ccccc1C(F)(F)F`, the residual activity came out at 89.9%.

Turning to `c1ccc(-c2n[nH]cc2-c2ccnc3ccccc23)nc1`, the residual activity was 85.7%.

In the next assay the target is MARK2 (human) (UniProt Q7KZI7). The description is as above. The note with it: compound 0.5 µM; ATP 10 µM.
`CC[n+]1c(/C=C/N(C)c2ccccc2)n(-c2ccccc2)c2ccc(-c3nc4ccccc4s3)cc21`: the residual activity was 91.6%.

Turning to `N#C/C(=C(/N)Sc1ccc(N)cc1)c1ccccc1C(F)(F)F`, the residual activity is 124%.

On to `c1ccc(-c2n[nH]cc2-c2ccnc3ccccc23)nc1`, for which the residual activity is 102%.

A further assay addresses MAPK10 (human) (UniProt P53779). Described as above. The note with it: compound 0.5 µM; ATP 10 µM.
As for `CC[n+]1c(/C=C/N(C)c2ccccc2)n(-c2ccccc2)c2ccc(-c3nc4ccccc4s3)cc21`, the residual activity was 92.7%.

Consider `N#C/C(=C(/N)Sc1ccc(N)cc1)c1ccccc1C(F)(F)F`, for which the residual activity stood at 94.7%.

As for `c1ccc(-c2n[nH]cc2-c2ccnc3ccccc23)nc1`, the residual activity stood at 92.9%.

A further assay has as its target AURKB (human) (UniProt Q96GD4). The description is as above. The following applies: compound 0.5 µM; ATP 10 µM.
For the molecule `CC[n+]1c(/C=C/N(C)c2ccccc2)n(-c2ccccc2)c2ccc(-c3nc4ccccc4s3)cc21`, the residual activity stood at 93.9%.

For `N#C/C(=C(/N)Sc1ccc(N)cc1)c1ccccc1C(F)(F)F`, the residual activity is 99.8%.

For the molecule `c1ccc(-c2n[nH]cc2-c2ccnc3ccccc23)nc1`, the residual activity was 96%.

Another assay addresses TYK2 JH1 catalytic (human) (UniProt P29597). Described as above. The note with it: compound 0.5 µM; ATP 10 µM.
As for `CC[n+]1c(/C=C/N(C)c2ccccc2)n(-c2ccccc2)c2ccc(-c3nc4ccccc4s3)cc21`, the residual activity turned out to be 88.5%.

In the case of `N#C/C(=C(/N)Sc1ccc(N)cc1)c1ccccc1C(F)(F)F`, the residual activity came to 102%.

On to `c1ccc(-c2n[nH]cc2-c2ccnc3ccccc23)nc1`, for which the residual activity was 101%.

A further assay deals with CSNK2A2 (human) (UniProt P19784). Described as above. The note with it: compound 0.5 µM; ATP 10 µM.
Sequence of CSNK2A2 (human) (P19784 whole entry, looked up): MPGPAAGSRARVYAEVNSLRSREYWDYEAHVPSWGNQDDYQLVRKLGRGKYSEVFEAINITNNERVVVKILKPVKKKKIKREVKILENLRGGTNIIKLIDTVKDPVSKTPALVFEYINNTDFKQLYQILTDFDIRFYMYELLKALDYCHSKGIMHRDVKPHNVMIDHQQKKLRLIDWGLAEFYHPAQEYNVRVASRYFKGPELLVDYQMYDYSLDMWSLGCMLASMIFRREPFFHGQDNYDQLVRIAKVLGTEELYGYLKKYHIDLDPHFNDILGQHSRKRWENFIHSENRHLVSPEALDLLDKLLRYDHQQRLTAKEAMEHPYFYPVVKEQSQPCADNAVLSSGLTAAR
For `CC[n+]1c(/C=C/N(C)c2ccccc2)n(-c2ccccc2)c2ccc(-c3nc4ccccc4s3)cc21`, the residual activity came out at 105%.

On to `N#C/C(=C(/N)Sc1ccc(N)cc1)c1ccccc1C(F)(F)F`, for which the residual activity is 86%.

In the case of `c1ccc(-c2n[nH]cc2-c2ccnc3ccccc23)nc1`, the residual activity amounted to 96.7%.

The target of the next assay is PRKCZ (human) (UniProt Q05513). The description is as above. The following applies: compound 0.5 µM; ATP 10 µM.
Sequence of PRKCZ (human) (Q05513 whole entry, looked up): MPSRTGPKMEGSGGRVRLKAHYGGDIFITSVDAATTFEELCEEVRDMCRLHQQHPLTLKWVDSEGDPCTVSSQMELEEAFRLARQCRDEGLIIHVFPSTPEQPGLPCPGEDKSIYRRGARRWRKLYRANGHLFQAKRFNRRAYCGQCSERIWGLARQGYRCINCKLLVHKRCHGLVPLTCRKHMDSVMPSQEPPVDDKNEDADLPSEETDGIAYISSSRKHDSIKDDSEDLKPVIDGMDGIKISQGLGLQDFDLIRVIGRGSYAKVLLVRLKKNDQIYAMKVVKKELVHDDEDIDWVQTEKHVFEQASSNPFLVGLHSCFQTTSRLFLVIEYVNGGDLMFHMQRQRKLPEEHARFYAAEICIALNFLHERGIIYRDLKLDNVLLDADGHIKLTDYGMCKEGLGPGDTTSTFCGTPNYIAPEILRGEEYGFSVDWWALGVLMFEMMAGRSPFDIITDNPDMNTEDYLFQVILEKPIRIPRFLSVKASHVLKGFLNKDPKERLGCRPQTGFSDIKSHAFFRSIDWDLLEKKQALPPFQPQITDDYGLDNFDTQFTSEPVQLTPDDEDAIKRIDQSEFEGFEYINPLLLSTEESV
With `CC[n+]1c(/C=C/N(C)c2ccccc2)n(-c2ccccc2)c2ccc(-c3nc4ccccc4s3)cc21`, the residual activity was 99.8%.

As to `N#C/C(=C(/N)Sc1ccc(N)cc1)c1ccccc1C(F)(F)F`, the residual activity came to 106%.

With `c1ccc(-c2n[nH]cc2-c2ccnc3ccccc23)nc1`, the residual activity came out at 115%.

The next assay deals with CHUK (human) (UniProt O15111). Described as above. The note with it: compound 0.5 µM; ATP 10 µM.
Consider `CC[n+]1c(/C=C/N(C)c2ccccc2)n(-c2ccccc2)c2ccc(-c3nc4ccccc4s3)cc21`, for which the residual activity is 86%.

Consider `N#C/C(=C(/N)Sc1ccc(N)cc1)c1ccccc1C(F)(F)F`, for which the residual activity came out at 102%.

In the case of `c1ccc(-c2n[nH]cc2-c2ccnc3ccccc23)nc1`, the residual activity was 94.2%.

The target in another assay is CSNK1E (human) (UniProt P49674). The description is as above. The following applies: compound 0.5 µM; ATP 10 µM.
Consider `CC[n+]1c(/C=C/N(C)c2ccccc2)n(-c2ccccc2)c2ccc(-c3nc4ccccc4s3)cc21`, for which the residual activity stood at 105%.

Turning to `N#C/C(=C(/N)Sc1ccc(N)cc1)c1ccccc1C(F)(F)F`, the residual activity is 95.9%.

With `c1ccc(-c2n[nH]cc2-c2ccnc3ccccc23)nc1`, the residual activity amounted to 53.9%.

The target of a further assay is JAK2 JH1 JH2 (human) (UniProt O60674). Described as above. The note with it: compound 0.5 µM; ATP 10 µM.
Sequence of JAK2 JH1 JH2 (human) (O60674 whole entry, looked up): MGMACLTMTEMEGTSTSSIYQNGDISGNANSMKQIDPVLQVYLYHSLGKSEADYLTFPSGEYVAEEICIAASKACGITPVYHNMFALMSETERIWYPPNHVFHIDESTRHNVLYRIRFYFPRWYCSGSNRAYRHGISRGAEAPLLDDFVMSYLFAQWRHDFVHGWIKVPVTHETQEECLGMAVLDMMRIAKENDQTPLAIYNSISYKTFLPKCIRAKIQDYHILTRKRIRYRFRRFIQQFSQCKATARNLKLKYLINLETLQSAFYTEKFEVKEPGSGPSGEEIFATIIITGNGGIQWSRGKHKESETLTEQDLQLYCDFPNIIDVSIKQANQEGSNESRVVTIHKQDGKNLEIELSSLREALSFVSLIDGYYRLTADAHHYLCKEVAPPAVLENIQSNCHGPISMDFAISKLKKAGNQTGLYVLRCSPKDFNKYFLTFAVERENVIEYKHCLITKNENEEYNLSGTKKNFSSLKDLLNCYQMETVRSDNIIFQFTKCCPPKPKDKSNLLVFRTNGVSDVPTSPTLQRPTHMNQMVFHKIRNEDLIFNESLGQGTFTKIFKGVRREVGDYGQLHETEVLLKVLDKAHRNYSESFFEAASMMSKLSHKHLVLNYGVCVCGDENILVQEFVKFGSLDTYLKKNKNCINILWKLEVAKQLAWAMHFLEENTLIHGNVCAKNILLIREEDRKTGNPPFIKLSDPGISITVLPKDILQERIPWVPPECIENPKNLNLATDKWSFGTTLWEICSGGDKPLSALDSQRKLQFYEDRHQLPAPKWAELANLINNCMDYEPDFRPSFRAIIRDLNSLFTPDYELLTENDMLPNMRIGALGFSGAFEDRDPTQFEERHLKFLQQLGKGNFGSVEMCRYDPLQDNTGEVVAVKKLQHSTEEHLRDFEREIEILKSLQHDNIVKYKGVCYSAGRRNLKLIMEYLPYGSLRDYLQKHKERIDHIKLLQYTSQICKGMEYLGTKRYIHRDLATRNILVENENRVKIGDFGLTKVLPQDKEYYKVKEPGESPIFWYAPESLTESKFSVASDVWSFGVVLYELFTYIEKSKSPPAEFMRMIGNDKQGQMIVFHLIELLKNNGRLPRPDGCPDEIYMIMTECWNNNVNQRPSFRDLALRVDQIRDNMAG
Regarding `CC[n+]1c(/C=C/N(C)c2ccccc2)n(-c2ccccc2)c2ccc(-c3nc4ccccc4s3)cc21`, the residual activity stood at 98.8%.

With `N#C/C(=C(/N)Sc1ccc(N)cc1)c1ccccc1C(F)(F)F`, the residual activity was 98.7%.

Turning to `c1ccc(-c2n[nH]cc2-c2ccnc3ccccc23)nc1`, the residual activity came out at 107%.

The target of another assay is OXSR1 (human) (UniProt O95747). Described as above. The following applies: compound 0.5 µM; ATP 10 µM.
On to `CC[n+]1c(/C=C/N(C)c2ccccc2)n(-c2ccccc2)c2ccc(-c3nc4ccccc4s3)cc21`, for which the residual activity was 94.2%.

Take `N#C/C(=C(/N)Sc1ccc(N)cc1)c1ccccc1C(F)(F)F`: the residual activity worked out at 101%.

Consider `c1ccc(-c2n[nH]cc2-c2ccnc3ccccc23)nc1`, for which the residual activity came to 85.3%.

The target of a further assay is CDK6 CCND1 (human) (UniProt Q00534+P24385). Described as above. The following applies: compound 0.5 µM; ATP 10 µM.
Sequence of CDK6 CCND1 (human) (P24385 whole entry, looked up): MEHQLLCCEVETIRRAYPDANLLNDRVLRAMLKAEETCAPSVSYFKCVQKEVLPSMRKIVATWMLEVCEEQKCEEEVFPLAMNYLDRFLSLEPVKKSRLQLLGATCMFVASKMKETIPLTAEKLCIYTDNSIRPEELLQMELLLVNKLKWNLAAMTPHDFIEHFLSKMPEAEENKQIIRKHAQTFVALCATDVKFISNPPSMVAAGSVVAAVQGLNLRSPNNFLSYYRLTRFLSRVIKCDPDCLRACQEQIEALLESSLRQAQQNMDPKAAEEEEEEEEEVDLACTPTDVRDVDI
Sequence of CDK6 CCND1 (human) (Q00534 whole entry, looked up): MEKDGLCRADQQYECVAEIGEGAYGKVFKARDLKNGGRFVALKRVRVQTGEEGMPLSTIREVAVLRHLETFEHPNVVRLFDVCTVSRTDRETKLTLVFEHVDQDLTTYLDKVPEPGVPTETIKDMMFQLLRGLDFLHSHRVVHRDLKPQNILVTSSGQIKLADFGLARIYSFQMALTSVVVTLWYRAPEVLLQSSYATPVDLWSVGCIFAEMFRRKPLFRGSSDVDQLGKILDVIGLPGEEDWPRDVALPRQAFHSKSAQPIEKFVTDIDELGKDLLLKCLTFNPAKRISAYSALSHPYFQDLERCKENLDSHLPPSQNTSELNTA
Turning to `CC[n+]1c(/C=C/N(C)c2ccccc2)n(-c2ccccc2)c2ccc(-c3nc4ccccc4s3)cc21`, the residual activity worked out at 103%.

On to `N#C/C(=C(/N)Sc1ccc(N)cc1)c1ccccc1C(F)(F)F`, for which the residual activity came out at 98%.

`c1ccc(-c2n[nH]cc2-c2ccnc3ccccc23)nc1`: the residual activity amounted to 91.1%.

A further assay concerns the target ACVR1B (human) (UniProt P36896). Described as above. The following applies: compound 0.5 µM; ATP 10 µM.
Regarding `CC[n+]1c(/C=C/N(C)c2ccccc2)n(-c2ccccc2)c2ccc(-c3nc4ccccc4s3)cc21`, the residual activity turned out to be 110%.

Regarding `N#C/C(=C(/N)Sc1ccc(N)cc1)c1ccccc1C(F)(F)F`, the residual activity was 101%.

With `c1ccc(-c2n[nH]cc2-c2ccnc3ccccc23)nc1`, the residual activity stood at 43.2%.

The next assay has as its target STK33 (human) (UniProt Q9BYT3). The description is as above. The following applies: compound 0.5 µM; ATP 10 µM.
Turning to `CC[n+]1c(/C=C/N(C)c2ccccc2)n(-c2ccccc2)c2ccc(-c3nc4ccccc4s3)cc21`, the residual activity is 89.4%.

Turning to `N#C/C(=C(/N)Sc1ccc(N)cc1)c1ccccc1C(F)(F)F`, the residual activity came to 92.2%.

`c1ccc(-c2n[nH]cc2-c2ccnc3ccccc23)nc1`: the residual activity came out at 92.9%.

Another assay deals with GRK7 (human) (UniProt Q8WTQ7). Described as above. The note with it: compound 0.5 µM; ATP 10 µM.
Sequence of GRK7 (human) (Q8WTQ7 whole entry, looked up): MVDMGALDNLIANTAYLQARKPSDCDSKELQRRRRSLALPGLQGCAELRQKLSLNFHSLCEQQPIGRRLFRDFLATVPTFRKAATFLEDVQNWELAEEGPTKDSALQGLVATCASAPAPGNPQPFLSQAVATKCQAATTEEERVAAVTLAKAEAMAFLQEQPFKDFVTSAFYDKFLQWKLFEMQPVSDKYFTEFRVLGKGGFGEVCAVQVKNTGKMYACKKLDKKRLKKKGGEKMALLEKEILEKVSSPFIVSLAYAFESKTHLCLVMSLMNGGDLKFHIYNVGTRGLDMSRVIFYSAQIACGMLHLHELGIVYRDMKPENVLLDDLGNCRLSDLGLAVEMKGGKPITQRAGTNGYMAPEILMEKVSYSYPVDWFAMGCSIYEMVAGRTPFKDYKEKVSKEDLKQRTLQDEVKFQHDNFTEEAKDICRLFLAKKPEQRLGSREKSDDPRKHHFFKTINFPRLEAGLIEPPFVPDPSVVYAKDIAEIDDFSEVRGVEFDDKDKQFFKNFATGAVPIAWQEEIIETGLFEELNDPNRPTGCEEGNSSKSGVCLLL
Take `CC[n+]1c(/C=C/N(C)c2ccccc2)n(-c2ccccc2)c2ccc(-c3nc4ccccc4s3)cc21`: the residual activity was determined as 100%.

For `N#C/C(=C(/N)Sc1ccc(N)cc1)c1ccccc1C(F)(F)F`, the residual activity amounted to 113%.

For `c1ccc(-c2n[nH]cc2-c2ccnc3ccccc23)nc1`, the residual activity turned out to be 102%.

A further assay has as its target CAMK1D (human) (UniProt Q8IU85). The assay is described as above. The note with it: compound 0.5 µM; ATP 10 µM.
As for `CC[n+]1c(/C=C/N(C)c2ccccc2)n(-c2ccccc2)c2ccc(-c3nc4ccccc4s3)cc21`, the residual activity was found to be 99.7%.

Take `N#C/C(=C(/N)Sc1ccc(N)cc1)c1ccccc1C(F)(F)F`: the residual activity was determined as 129%.

On to `c1ccc(-c2n[nH]cc2-c2ccnc3ccccc23)nc1`, for which the residual activity was 100%.

Another assay concerns the target ERBB2 (human) (UniProt P04626). Described as above. The following applies: compound 0.5 µM; ATP 10 µM.
In the case of `CC[n+]1c(/C=C/N(C)c2ccccc2)n(-c2ccccc2)c2ccc(-c3nc4ccccc4s3)cc21`, the residual activity amounted to 92%.

For `N#C/C(=C(/N)Sc1ccc(N)cc1)c1ccccc1C(F)(F)F`, the residual activity is 93%.

For the molecule `c1ccc(-c2n[nH]cc2-c2ccnc3ccccc23)nc1`, the residual activity worked out at 106%.

A further assay concerns the target PKN2 (human) (UniProt Q16513). The assay is described as above. The note with it: compound 0.5 µM; ATP 10 µM.
As to `CC[n+]1c(/C=C/N(C)c2ccccc2)n(-c2ccccc2)c2ccc(-c3nc4ccccc4s3)cc21`, the residual activity was 79.2%.

For `N#C/C(=C(/N)Sc1ccc(N)cc1)c1ccccc1C(F)(F)F`, the residual activity came out at 99.9%.

In the case of `c1ccc(-c2n[nH]cc2-c2ccnc3ccccc23)nc1`, the residual activity turned out to be 91.4%.
